Experimental data reported in the NIST ThermoML archive (doi:10.1021/je700260f).
“And” between values parts separate entries of the source, which are not always exact repeats. Equal values may be shown once. ± gives the expanded uncertainty stated by the source.

Settings: Liquid, Vibrating tube method

Work on `FC(C(F)(F)F)C(F)(F)F` [1,1,1,2,3,3,3-heptafluoropropane] yielded a mass density (283.15 K, 34529 kPa) of 1579 ± 1.8 kg/m3, a mass density (283.15 K, 34530 kPa) of 1579 ± 1.8 kg/m3 and a mass density (283.15 K, 34532 kPa) of 1579.1 ± 1.8 kg/m3. For the same compound, the mass density (283.15 K, 34533 kPa) was 1579 ± 1.8 kg/m3, the mass density (283.15 K, 34534 kPa) was 1579.1 ± 1.8 kg/m3 and the mass density (283.15 K, 34535 kPa) was 1579.2 ± 1.8 kg/m3. The mass density (283.15 K, 34536 kPa) was 1579 ± 1.8 kg/m3, the mass density (283.15 K, 34538 kPa) was 1579 ± 1.8 kg/m3 and 1579.1 ± 1.8 kg/m3 and the mass density (283.15 K, 34540 kPa) was 1579.1 ± 1.8 kg/m3. For the same compound, the mass density (283.15 K, 34541 kPa) was 1579.1 ± 1.8 kg/m3, the mass density (283.16 K, 9519 kPa) was 1496 ± 1.6 kg/m3 and the mass density (283.16 K, 9552 kPa) was 1496.3 ± 1.6 kg/m3. The mass density (283.16 K, 9579 kPa) was 1496.3 ± 1.6 kg/m3, the mass density (283.16 K, 9612 kPa) was 1496.4 ± 1.6 kg/m3 and the mass density (283.16 K, 21379 kPa) was 1540.8 ± 1.7 kg/m3. For the same compound, the mass density (293.14 K, 783 kPa) was 1411.5 ± 1.5 kg/m3, the mass density (293.14 K, 832 kPa) was 1411.9 ± 1.5 kg/m3 and the mass density (293.14 K, 869 kPa) was 1412.2 ± 1.5 kg/m3. The mass density (293.14 K, 911 kPa) was 1412.4 ± 1.5 kg/m3, the mass density (293.14 K, 943 kPa) was 1412.7 ± 1.5 kg/m3 and the mass density (293.14 K, 980 kPa) was 1412.9 ± 1.5 kg/m3. The mass density (293.14 K, 1007 kPa) was 1413.2 ± 1.5 kg/m3, the mass density (293.14 K, 1048 kPa) was 1413.5 ± 1.5 kg/m3 and the mass density (293.14 K, 1080 kPa) was 1413.6 ± 1.5 kg/m3. The mass density (293.14 K, 1113 kPa) was 1414 ± 1.5 kg/m3, the mass density (293.14 K, 1145 kPa) was 1414.1 ± 1.5 kg/m3 and the mass density (293.14 K, 1191 kPa) was 1414.5 ± 1.5 kg/m3. The mass density (293.14 K, 1219 kPa) was 1414.6 ± 1.5 kg/m3, the mass density (293.14 K, 1252 kPa) was 1414.9 ± 1.5 kg/m3 and the mass density (293.14 K, 1285 kPa) was 1415 ± 1.5 kg/m3. The mass density (293.14 K, 1319 kPa) was 1415.2 ± 1.5 kg/m3, the mass density (293.14 K, 1347 kPa) was 1415.6 ± 1.5 kg/m3 and the mass density (293.14 K, 1380 kPa) was 1415.7 ± 1.5 kg/m3. For the same compound, the mass density (293.14 K, 1417 kPa) was 1415.9 ± 1.5 kg/m3, the mass density (293.14 K, 1446 kPa) was 1416.2 ± 1.5 kg/m3 and the mass density (293.14 K, 1484 kPa) was 1416.4 ± 1.5 kg/m3. For the same compound, the mass density (293.14 K, 1514 kPa) was 1416.7 ± 1.5 kg/m3, the mass density (293.14 K, 1543 kPa) was 1417 ± 1.5 kg/m3 and the mass density (293.14 K, 1583 kPa) was 1417.1 ± 1.5 kg/m3. It also gave a mass density (293.14 K, 1612 kPa) of 1417.3 ± 1.5 kg/m3, a mass density (293.14 K, 1754 kPa) of 1418.3 ± 1.5 kg/m3 and a mass density (293.14 K, 1789 kPa) of 1418.7 ± 1.5 kg/m3. The mass density (293.14 K, 1824 kPa) was 1418.8 ± 1.5 kg/m3, the mass density (293.14 K, 1901 kPa) was 1419.3 ± 1.5 kg/m3 and the mass density (293.14 K, 1941 kPa) was 1419.6 ± 1.5 kg/m3. It also gave a mass density (293.14 K, 1972 kPa) of 1419.8 ± 1.5 kg/m3, a mass density (293.14 K, 2001 kPa) of 1420.1 ± 1.5 kg/m3 and a mass density (293.14 K, 2030 kPa) of 1420.1 ± 1.5 kg/m3. For the same compound, the mass density (293.14 K, 2059 kPa) was 1420.5 ± 1.5 kg/m3, the mass density (293.14 K, 2084 kPa) was 1420.5 ± 1.5 kg/m3 and the mass density (293.14 K, 2104 kPa) was 1420.7 ± 1.5 kg/m3. The mass density (293.14 K, 2140 kPa) was 1421 ± 1.5 kg/m3, the mass density (293.14 K, 2164 kPa) was 1421 ± 1.5 kg/m3 and the mass density (293.14 K, 2197 kPa) was 1421.3 ± 1.5 kg/m3. The mass density (293.14 K, 2221 kPa) was 1421.4 ± 1.5 kg/m3, the mass density (293.14 K, 2258 kPa) was 1421.7 ± 1.5 kg/m3 and the mass density (293.14 K, 2291 kPa) was 1421.9 ± 1.5 kg/m3. It also gave a mass density (293.14 K, 2324 kPa) of 1422.2 ± 1.5 kg/m3, a mass density (293.14 K, 2349 kPa) of 1422.4 ± 1.5 kg/m3 and a mass density (293.14 K, 2377 kPa) of 1422.7 ± 1.5 kg/m3. It also gave a mass density (293.14 K, 2402 kPa) of 1422.6 ± 1.5 kg/m3, a mass density (293.14 K, 2682 kPa) of 1424.5 ± 1.5 kg/m3 and a mass density (293.14 K, 2707 kPa) of 1424.7 ± 1.5 kg/m3. The mass density (293.14 K, 2740 kPa) was 1424.9 ± 1.5 kg/m3, the mass density (293.14 K, 2766 kPa) was 1425.1 ± 1.5 kg/m3 and the mass density (293.14 K, 2804 kPa) was 1425.4 ± 1.5 kg/m3. The mass density (293.14 K, 2829 kPa) was 1425.5 ± 1.5 kg/m3, the mass density (293.14 K, 2858 kPa) was 1425.8 ± 1.5 kg/m3 and the mass density (293.14 K, 2883 kPa) was 1425.8 ± 1.5 kg/m3. The mass density (293.14 K, 2921 kPa) was 1426.1 ± 1.5 kg/m3, the mass density (293.14 K, 2959 kPa) was 1426.4 ± 1.5 kg/m3 and the mass density (293.14 K, 2988 kPa) was 1426.7 ± 1.5 kg/m3. It also gave a mass density (293.14 K, 3018 kPa) of 1426.7 ± 1.5 kg/m3, a mass density (293.14 K, 3056 kPa) of 1426.9 ± 1.5 kg/m3 and a mass density (293.14 K, 3082 kPa) of 1427.2 ± 1.5 kg/m3. For the same compound, the mass density (293.14 K, 3112 kPa) was 1427.3 ± 1.5 kg/m3, the mass density (293.14 K, 3147 kPa) was 1427.5 ± 1.5 kg/m3 and the mass density (293.14 K, 3177 kPa) was 1427.8 ± 1.5 kg/m3. For the same compound, the mass density (293.14 K, 3211 kPa) was 1427.9 ± 1.5 kg/m3, the mass density (293.14 K, 3246 kPa) was 1428.2 ± 1.5 kg/m3 and the mass density (293.14 K, 3290 kPa) was 1428.4 ± 1.5 kg/m3. The mass density (293.14 K, 3321 kPa) was 1428.7 ± 1.5 kg/m3, the mass density (293.14 K, 3360 kPa) was 1428.9 ± 1.5 kg/m3 and the mass density (293.14 K, 3395 kPa) was 1429.1 ± 1.5 kg/m3. For the same compound, the mass density (293.14 K, 3426 kPa) was 1429.3 ± 1.5 kg/m3, the mass density (293.14 K, 3461 kPa) was 1429.4 ± 1.5 kg/m3 and the mass density (293.14 K, 3502 kPa) was 1429.8 ± 1.5 kg/m3. For the same compound, the mass density (293.14 K, 3537 kPa) was 1430 ± 1.5 kg/m3, the mass density (293.14 K, 3573 kPa) was 1430.1 ± 1.5 kg/m3 and the mass density (293.14 K, 3604 kPa) was 1430.4 ± 1.5 kg/m3. For the same compound, the mass density (293.14 K, 3631 kPa) was 1430.7 ± 1.5 kg/m3, the mass density (293.14 K, 3668 kPa) was 1430.7 ± 1.5 kg/m3 and the mass density (293.14 K, 3690 kPa) was 1431.1 ± 1.5 kg/m3. For the same compound, the mass density (293.14 K, 3722 kPa) was 1431 ± 1.5 kg/m3, the mass density (293.14 K, 3750 kPa) was 1431.3 ± 1.5 kg/m3 and the mass density (293.14 K, 3815 kPa) was 1431.8 ± 1.5 kg/m3. For the same compound, the mass density (293.14 K, 3876 kPa) was 1432.1 ± 1.5 kg/m3, the mass density (293.14 K, 4878 kPa) was 1438.3 ± 1.5 kg/m3 and the mass density (293.14 K, 4910 kPa) was 1438.4 ± 1.5 kg/m3. It also gave a mass density (293.14 K, 4933 kPa) of 1438.5 ± 1.5 kg/m3, a mass density (293.14 K, 4965 kPa) of 1438.7 ± 1.5 kg/m3 and a mass density (293.14 K, 4997 kPa) of 1438.9 ± 1.5 kg/m3.
